The text below walks through data of PMC11730078, “Virtual screening and evaluation of bioactive peptides from Haliotis discus hannai as potential HMGCR inhibitors for hyperlipidemia treatment” (Frontiers in Nutrition, 2024).

Assay [1] deals with HMG-CoA reductase (HMGCR). As to the kind of experiment: HMG-CoA reductase inhibitory activity (HMG-CoA Reductase Assay Kit, Abcam ab204701). The format is biochemical. The note with it: 1 mM peptide, 0.5 mM Atorvastatin as positive control, OD340, 37°C, mean ± SD, three biological replicates, Figure 3B. As for the experimental part:
The HMG-CoA reductase inhibitory activities were determined using the HMG-CoA Reductase Assay Kit (Abcam, ab204701) as previously described ([19]). Enzyme activity was measured by monitoring the decrease in absorbance at 340 nm and 37°C, following the manufacturer’s instructions. The reaction mix consisted of a mixture of HMG-CoA:NADPH:HMG-CoA reductase buffer assay (12:4:174; 190 μL). In a 96-well flat-bottomed microtiter plate, 5 μL of HMG-CoA reductase, 2 μL of inhibitor, and 3 μL of buffer were mixed. The addition of 190 μL of reaction mix marked the initiation of the enzyme reaction. OD340 was measured for 10 min at 2-min intervals at 37°C.
HMGCR inhibition rate (%)=−ΔA340nm/ΔTEnzyme−−ΔA340nm/ΔTEnzyme+Inhubitor/−ΔA340nm/ΔTEnzyme×100.

A short description of assay [2]: Inhibition of cholesterol micelle solubility in vitro. The note with it: for Cholesterol micelle solubility inhibition rate: 1 mM peptide, micelles of 10 mM sodium taurocholate, 0.4 mM cholesterol, 1 mM oleic acid, pH 7.4, 37°C, 24 h, mean ± SD, three biological replicates, Figure 3C, SD; for Inhibition of cholesterol micellar solubility, comparison and dose trend: peptide 50, 100, 200, 400 μM, Figure 4D. Here is the method:
After sequence identification, the peptide sequences were obtained through solid-phase synthesis by GenScript (Nanjing, China). The inhibitory effect of the peptide on cholesterol micelle solubility was measured as previously described with some modifications ([18]). Micellar solutions (1 mL) contained 10 mM sodium taurocholate, 0.4 mM cholesterol, 1 mM oleic acid, 132 mM NaCl, and 15 mM sodium phosphate (pH 7.4). […] After mixing, the samples were ultrasonically emulsified at 37°C for 30 min and incubated on a shaker at 37°C for 24 h. The samples were centrifuged at 8,000 × g for 20 min, and a total cholesterol (T-CHO) assay kit (Jiancheng Bioengineering Institute, Nanjing, China) was used for measurement. The inhibitory effect of the peptide solution on cholesterol micelle solubility was calculated as follows: (1) Cholesterol micelle solubility inhibition rate() =C0−C1/C0×100 where C0 is the initial cholesterol concentration in the micelles, and C1 is the cholesterol concentration in the micelles after sample addition.

In assay [3] the test system is high-fat Hep-G2 cells. As to the kind of experiment: TC content in FFAs-induced high-fat Hep-G2 cells. In kind it is cell-based. The note with it: 24 h; for TC level in high-fat Hep-G2 cells, dose effect: peptide 50, 100, 200, 400 μM with FFAs. As for the experimental part:
Cells grown to the log phase were digested, gently mixed using a pipette, and collected via centrifugation. The cells were then resuspended in a culture medium and homogenized using a pipette. A hemocytometer was used to count the cells diluted to 2 × 10^5/mL using a complete medium. Then, 250 μL of the cell suspension was pipetted into a 48-well cell culture plate for incubation in a CO2 incubator at 37°C for 14–16 h. […] Control groups were performed without peptides or FFAs. The model groups were treated with FFAs only, without peptides. Next, the cells were washed with DPBS and lysed for 45 min on ice using 1.5% Triton-X100. TC, TG, HDL-C, and LDL-C levels were determined using Nanjing Jiancheng assay kits.

The subject of assay [4] is high-fat Hep-G2 cells. As to the kind of experiment: TG content in FFAs-induced high-fat Hep-G2 cells. The format is cell-based. The settings on record: 400 μM peptide with FFAs, 24 h; for TG content in high-fat Hep-G2 cells: mean ± SD, three biological replicates, Figure 4C, SD. As for the experimental part: Cells grown to the log phase were digested, gently mixed using a pipette, and collected via centrifugation. The cells were then resuspended in a culture medium and homogenized using a pipette. A hemocytometer was used to count the cells diluted to 2 × 10^5/mL using a complete medium. Then, 250 μL of the cell suspension was pipetted into a 48-well cell culture plate for incubation in a CO2 incubator at 37°C for 14–16 h. After reaching 80–90% confluency, cells were incubated with peptides (50, 100, 200, or 400 μM) and FFAs (10% oleic acid and palmitic acid) for 24 h. Control groups were performed without peptides or FFAs. The model groups were treated with FFAs only, without peptides. Next, the cells were washed with DPBS and lysed for 45 min on ice using 1.5% Triton-X100. TC, TG, HDL-C, and LDL-C levels were determined using Nanjing Jiancheng assay kits.

With DYPRPW, the HMGCR inhibition rate in assay [1] is reported as 51.81% ± 0.70. Besides, in assay [2], the “Cholesterol micelle solubility inhibition rate” value was 37.29% ± 1.45; the “Inhibition of cholesterol micellar solubility, comparison and dose trend” value (“Inhibition … comparison and dose trend” for short) is given as “superior inhibition rate”. The “TC level in high-fat Hep-G2 cells compared with model group” value in the assay on high-fat Hep-G2 cells [3] (400 μM peptide with FFAs, Figure 4B) is “significantly lower than that in the model group”. The “TC level in high-fat Hep-G2 cells, dose effect” value (“TC level … dose effect” below) with high-fat Hep-G2 cells [3] (Figure 4B) is “the higher the concentration, the lower the TC level”.

As to “WFKTM [abalone viscera peptide, top 20 after virtual screening, synthesized by GenScript]”, in the assay on high-fat Hep-G2 cells [3] (peptide 1 mM with FFAs, Figure 3A), the “TC accumulation in high-fat Hep-G2 cells compared with model group” value is recorded as “all peptides, except for WFKTM, alleviated TC accumulation”.

Consider QDAVMPNPF, for which, in assay [2], the “Cholesterol micelle solubility inhibition rate” value was 47.94% ± 0.58; the “Inhibition … comparison and dose trend” value is reported as “showed inhibition of cholesterol micellar solubility”. Besides, in the assay on high-fat Hep-G2 cells [3] (Figure 4B), the “TC level … dose effect” value is “not significant”. Moreover, in the assay with high-fat Hep-G2 cells [4], the “Decrease of TG content compared with model group” value was 31.31% ± 0.10 and the “TG content in high-fat Hep-G2 cells” value is on record as 0.33 ± 0.05 mmol/gprot.

For the substance LPAYPMP, the HMGCR inhibition rate in assay [1] is listed as 54.65% ± 0.36. Also, in assay [2], the “Cholesterol micelle solubility inhibition rate” value is reported as 41.55% ± 5.48; the “Inhibition … comparison and dose trend” value was “showed inhibition of cholesterol micellar solubility”. Besides, in the assay on high-fat Hep-G2 cells [3] (Figure 4B), the “TC level … dose effect” value was “not significant”.

As to “SPADIGFH [abalone viscera peptide, top 20 after virtual screening, synthesized by GenScript]”, in assay [1], the HMGCR inhibition rate is given as 53.89% ± 3.89. Further, the “Cholesterol micelle solubility inhibition rate” value in assay [2] is 45.23% ± 3.68.

For the substance APDMAFPR, the HMGCR inhibition rate in assay [1] was 59.55% ± 0.46. Also, in assay [2], the “Cholesterol micelle solubility inhibition rate” value is on record as 35.87% ± 2.56; the “Inhibition … comparison and dose trend” value is on record as “weakest inhibitory effect”. Further, the “TC level … dose effect” value in the assay on high-fat Hep-G2 cells [3] (Figure 4B) is on record as “not significant”. Besides, in the assay on high-fat Hep-G2 cells [4], the “Decrease of TG content compared with model group” value is 34.86% ± 0.08 and the “TG content in high-fat Hep-G2 cells” value is 0.31 ± 0.04 mmol/gprot.
